According to patent publication US20240279191A1, “SMALL MOLECULE INHIBITORS OF TEAD-YAP” (The General Hospital Corporation, priority 2021, published 2024):

Experiments:
[1] = test system: KNS62; assay: KNS62 growth inhibition (SAR tables); type: cell-based
[2] = test system: NCI-H2052 cells; assay: Cell proliferation assay (MTT), NCI-H2052; conditions: Homo sapiens, NCI-H2052, read-out: IC50 NCI-H2052 cell proliferation
[3] = test system: TEAD-YAP target genes (CTGF, Cyr61, ANKRD1); assay: Quantitative RT-PCR of TEAD-YAP target genes in H226 cells; type: cell-based, Human
Experimental: […] The high-capacity cDNA reverse transcription kit (4368814, Life Technologies) was employed to obtain cDNA. Target genes expression (Cyr61, CTGF and ANKRD1) was measured with PowerUp SYB Green Master Mix kit (A25777, Life Technologies). β-actin was used as reference gene. The primers are shown below:

[4] = target: association of YAP with endogenous TEAD1 and pan-TEAD (Homo sapiens, UniProt P28347); assay: YAP co-immunoprecipitation (Co-IP) assay in H226 cells; type: cell-based; conditions: H226, 24 h, dose-dependent, FIG. 5A
Chain of association of YAP with endogenous TEAD1 and pan-TEAD (P28347 whole entry): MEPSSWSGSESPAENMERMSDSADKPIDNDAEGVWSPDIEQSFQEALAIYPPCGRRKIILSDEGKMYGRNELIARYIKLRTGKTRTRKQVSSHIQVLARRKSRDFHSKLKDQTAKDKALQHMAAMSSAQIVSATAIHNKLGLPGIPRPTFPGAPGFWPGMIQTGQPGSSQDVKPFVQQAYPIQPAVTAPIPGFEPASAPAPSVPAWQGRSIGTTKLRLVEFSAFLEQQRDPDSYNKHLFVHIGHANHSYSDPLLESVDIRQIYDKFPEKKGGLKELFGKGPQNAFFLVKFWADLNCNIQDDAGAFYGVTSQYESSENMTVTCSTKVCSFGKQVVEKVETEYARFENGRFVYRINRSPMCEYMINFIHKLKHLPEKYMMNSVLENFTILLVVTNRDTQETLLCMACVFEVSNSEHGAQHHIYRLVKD
Experimental: H226 cells were treated with DMSO or TM2 for 24 h. The cells were then washed and harvested by cold DPBS. The cell pellets were isolated by centrifugation (500×g, 10 min) and lysed by lysis buffer (50 mM Tris-HCl pH 7.5, 10% Glycerol, 1% NP-40, 300 mM NaCl, 150 mM KCl, 5 mM EDTA, phosphatase inhibitor cocktail, complete EDTA-free protease inhibitors cocktail) on ice. After dilution with 50 mM Tris-HCl pH 7.5, 10% Glycerol, 1% NP-40, 5 mM EDTA, the protein samples were incubated with mouse anti-YAP antibody (sc-101199, Santa Cruz) overnight at 4° C. and immunoprecipitated with prewashed protein A/G beads (P5030-1, UBPBio) for another 4 h at 4° C. The bound proteins were washed with 0.1% PBST for three times and eluted with 1×SDS loading buffer and analyzed with SDS-PAGE. Anti-TEAD1 (1:1000, 12292S, Cell Signaling), anti-pan-TEAD (1:1000, 13295, Cell Signaling) or anti-YAP (1:1000, 140745, Cell Signaling) antibody were used to detect TEAD1, pan-TEAD or YAP, respectively. Secondary antibody was anti-rabbit (1:5000, 7074S, Cell Signaling).

[5] = test system: DLD1 cells; assay: Cell proliferation assay (MTT), DLD1; conditions: CRC cell line, FIG. 8D
[6] = test system: Mouse hepatic progenitor organoids; assay: Organoids viability; type: cell-based; conditions: 40 nM
Experimental: Mouse hepatic progenitor organoids (70932, […] Tech) were seeded in 96 well plate using 20 ul Matrigel (Corning, #354230) and cultured in HepatiCult™ Organoid Growth Medium (06031, […] Tech) with or without TM2. Medium was replaced after every 48 h with fresh compound. Organoid viability was measured by PrestoBlue™ HS Cell Viability Reagent (ThermoFisher, #P50200) following the manufacturer's protocol.

[7] = test system: HCT116 cells; assay: Drug combination matrix TM2 + Trametinib, HCT116; type: cell-based, Human; conditions: 5 doses TM2 x 9 doses trametinib, day 5, Bliss, FIG. 10
Experimental: The drug combination experiments were preformed using a drug combination matrix across 5 doses of TM2 (5 μM, 3-fold dilution) and 9 doses of Trametinib (10 μM, 3-fold dilution) in different tumor cell lines. Cell viability was determined at day 5 after the drugs administration by MTT. Drug synergy score was calculated followed Bliss rule. Synergy Score and Plot was generated by “Synergyfinder” package in R language.

[8] = test system: YAP/TAZ-TEAD direct target genes; assay: RNA-seq analysis in H226 cells; type: cell-based, Human; conditions: 1 μM TM2, versus K975 in H226 xenograft tumors (GSE156912), FIG. 7
Experimental: The NCI-H226 cells were treated with TM2 at 1 μM for 24 hours. Total RNA was isolated with RNeasy Mini Kit (74104, Qiagen). The integrity of isolated RNA was analyzed using Bioanalyzer (Agilent Technologies). and the RNA-seq libraries were made by Novogene. All libraries have at least 50 million reads sequenced (150 bp paired-end). The heatmaps were generated using different expressed genes from TM2 treatment in NCI-H226 cells with Motpheus (https://software.broadinstitute.org/morpheus/). Principle component analysis (PCA) was determined by PCA function in M3C package in R. Gene Set Enrichment Analysis (GSEA) was performed using GSEA software from Broad Institute (http://software.broadinstitute.org/gsea/index.jsp). The YAP_TAZ-TEAD Direct Target Genes set were generated with the published YAP/TAZ-TEAD target genes (Zanconato et al., 2015).

[9] = test system: endogenous TEAD1-4 (pan-TEAD); assay: Inhibition of endogenous pan-TEAD palmitoylation in HEK293A cells; type: cell-based
Experimental: HEK293A cells with or without TEAD overexpression were pretreated with DMSO or TM2 in medium with 10% dialyzed fetal bovine serum (DFBS) for 8 h and labeled by Alkynyl Palmitic acid (1165, Click Chemistry Tools) for another 16 h. The cells were then washed and harvested by cold DPBS (14190250, Life Technologies). The cell pellets were isolated by centrifugation (500×g, 10 min) and lysed by TEA lysis buffer (50 mM TEA-HCl, pH 7.4, 150 mM NaCl, 1% Triton X-100, 0.2% SDS, 1×Protease inhibitor-EDTA free cocktail (05892791001, Roche), phosphatase inhibitor cocktail (P0044, Sigma-Aldrich)) on ice for 30 mins. The protein concentration was determined using Bio-Rad assay and adjusted to 1 mg/mL. 100 μL of protein sample mixture was treated with 10 μL of freshly prepared “click” mixture containing 1 mM TBTA, 10 mM TCEP, 10 mM CuSO4, 1 mM TBTA Biotin-Azide and incubated for 1 h at room temperature. The proteins were precipitated by chloroform/methanol/H20 mixture and redissolved with 2% SDS in 0.1% PBST. The solution was diluted with 0.1% PBST and incubated with prewashed streptavidin agarose beads (69203-3, E M D MILLIPORE). After rotation at room temperature for 2 h, the beads were then pelleted by centrifugation (500×g, 3 min) and washed with 0.2% SDS in PBS (3×1 mL). The bound proteins were eluted with a buffer containing 10 mM EDTA pH 8.2 and 95% formamide and analyzed with SDS-PAGE. […]

[10] = test system: PDL1 expression; assay: PDL1 expression in cancer cell lines; type: cell-based
[11] = logD 7.4; conditions: pH 7.4

O=C(Nc1ccccc1)N1CCN(C(=O)c2cccc(OCCC3CCCCC3)c2)CC1 [TM2, 4-(3-(2-cyclohexylethoxy)benzoyl)-N-phenylpiperazine-1-carboxamide]
KNS62: value at 1 μM ([1]; 1 μM): 37
KNS62: value at 10 μM ([1]; 10 μM): 28
IC50 [2]: 157 nM
expression level of CTGF and ANKDR1 (in words) ([3]; H226, 24 and 48 h): significantly suppressed
expression of Cyr61 (in words) ([3]; H226, 48 h): strong response
association of YAP with endogenous TEAD1 and pan-TEAD (in words) [4]: dramatically blocked
inhibition of DLD1 cell proliferation (in words) [5]: did not exhibit strong inhibition
disruption of organoids growth [6]: more than 85%
combination with MEK inhibitor trametinib, HCT116 (in words) [7]: strong inhibitory effects and substantial synergy
block of YAP/TAZ-TEAD direct target genes (in words) [8]: more efficient to block YAP/TAZ-TEAD target genes relative to K975
Pan-TEAD palmitoylation at 100 nM (in words) ([9]; 100 nM): diminished
endogenous TEAD1-4 (pan-TEAD) palmitoylation (in words) ([9]; HEK293A, 24 h, FIG. 2D): significantly inhibits
PDL1 expression in cancer cell lines (in words) [10]: inhibits PDL1 expression
logD [11]: 4.6
